# Laboratory results as given in the supplement of paper PMC10307832.
# What was measured:
# Test in all cases: relative viability (nuclei count vs DMSO), 5 days (fraction); higher = more cells survive
# [1] = system: A-427
# Outline: (§1)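 Cells from lung cancer lines were seeded into 1536-well plates and, one day later, dosed by pin tool. Treatments were either a single drug or a fixed dose of an anchor drug with five library-drug doses (not always all listed) in √10 steps. After 5 days, nuclei were stained in a one-step fixation (final 0.05% Triton X-100, 1% formaldehyde, 1 ug/ml Hoechst) and counted on 4× images, and relative viability is the treated-to-vehicle nuclei ratio, as the median of duplicate plates.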
# [2] = system: COR-L 105
# Outline: as §1
# [3] = system: EPLC-272H
# Outline: as §1
# [4] = system: HCC-366
# Outline: as §1
# [5] = system: HCC-78
# Outline: as §1
# [6] = system: HOP-62
# Outline: as §1
# [7] = system: LC-2-ad
# Outline: as §1
# [8] = system: LCLC-97TM1
# Outline: as §1
# [9] = system: LU99A
# Outline: as §1
# [10] = system: LXF-289
# Outline: as §1
# [11] = system: NCI-H1755
# Outline: as §1
# [12] = system: NCI-H1792
# Outline: as §1
# [13] = system: NCI-H1793
# Outline: as §1
# [14] = system: NCI-H1915
# Outline: as §1
# [15] = system: NCI-H1944
# Outline: as §1
# [16] = system: NCI-H1975
# Outline: as §1
# [17] = system: NCI-H2085
# Outline: as §1
# [18] = system: NCI-H2170
# Outline: as §1
# [19] = system: NCI-H358
# Outline: as §1
# [20] = system: NCI-H460
# Outline: as §1
# [21] = system: SK-LU-1
# Outline: as §1
# [22] = system: SW 900
# Outline: as §1
# [23] = system: UMC-11
# Outline: as §1
structure (smiles),measurement,setting,value
NC(=O)Nc1cc(-c2cccc(F)c2)sc1C(=O)N[C@H]1CCCNC1 [AZD7762] + Nc1ncn([C@H]2C[C@H](O)[C@@H](CO)O2)c(=O)n1 [Decitabine] (partner 2 µM),relative viability,[1]; first compound 0.01 µM,0.582
same,relative viability,[1]; first compound 0.03162 µM,0.648
same,relative viability,[1]; first compound 0.1 µM,0.633
same,relative viability,[1]; first compound 0.3162 µM,0.554
same,relative viability,[1]; first compound 1 µM,0.314
same,relative viability,[2]; first compound 0.01 µM,0.711
same,relative viability,[2]; first compound 0.03162 µM,0.664
same,relative viability,[2]; first compound 0.1 µM,0.643
same,relative viability,[2]; first compound 0.3162 µM,0.55
same,relative viability,[2]; first compound 1 µM,0.508
same,relative viability,[3]; first compound 0.01 µM,0.352
same,relative viability,[3]; first compound 0.03162 µM,0.445
same,relative viability,[3]; first compound 0.1 µM,0.356
same,relative viability,[3]; first compound 0.3162 µM,0.421
same,relative viability,[3]; first compound 1 µM,0.239
same,relative viability,[4]; first compound 0.01 µM,0.332
same,relative viability,[4]; first compound 0.03162 µM,0.407
same,relative viability,[4]; first compound 0.1 µM,0.337
same,relative viability,[4]; first compound 0.3162 µM,0.309
same,relative viability,[4]; first compound 1 µM,0.154
same,relative viability,[5]; first compound 0.01 µM,0.707
same,relative viability,[5]; first compound 0.03162 µM,0.901
same,relative viability,[5]; first compound 0.1 µM,0.824
same,relative viability,[5]; first compound 0.3162 µM,0.904
same,relative viability,[5]; first compound 1 µM,0.622
same,relative viability,[6]; first compound 0.01 µM,0.216
same,relative viability,[6]; first compound 0.03162 µM,0.23
same,relative viability,[6]; first compound 0.1 µM,0.248
same,relative viability,[6]; first compound 0.3162 µM,0.284
same,relative viability,[6]; first compound 1 µM,0.299
same,relative viability,[7]; first compound 0.01 µM,0.853
same,relative viability,[7]; first compound 0.03162 µM,0.901
same,relative viability,[7]; first compound 0.1 µM,0.796
same,relative viability,[7]; first compound 0.3162 µM,0.649
same,relative viability,[7]; first compound 1 µM,0.682
same,relative viability,[8]; first compound 0.01 µM,0.259
same,relative viability,[8]; first compound 0.03162 µM,0.265
same,relative viability,[8]; first compound 0.1 µM,0.273
same,relative viability,[8]; first compound 0.3162 µM,0.303
same,relative viability,[8]; first compound 1 µM,0.346
same,relative viability,[9]; first compound 0.01 µM,0.863
same,relative viability,[9]; first compound 0.03162 µM,0.911
same,relative viability,[9]; first compound 0.1 µM,0.941
same,relative viability,[9]; first compound 0.3162 µM,0.958
same,relative viability,[9]; first compound 1 µM,0.635
same,relative viability,[10]; first compound 0.01 µM,0.322
same,relative viability,[10]; first compound 0.03162 µM,0.476
same,relative viability,[10]; first compound 0.1 µM,0.486
same,relative viability,[10]; first compound 0.3162 µM,0.619
same,relative viability,[10]; first compound 1 µM,0.55
same,relative viability,[11]; first compound 0.01 µM,0.76
same,relative viability,[11]; first compound 0.03162 µM,0.839
same,relative viability,[11]; first compound 0.1 µM,0.847
same,relative viability,[11]; first compound 0.3162 µM,0.922
same,relative viability,[11]; first compound 1 µM,0.703
same,relative viability,[12]; first compound 0.01 µM,0.507
same,relative viability,[12]; first compound 0.03162 µM,0.579
same,relative viability,[12]; first compound 0.1 µM,0.662
same,relative viability,[12]; first compound 0.3162 µM,0.582
same,relative viability,[12]; first compound 1 µM,0.68
same,relative viability,[13]; first compound 0.01 µM,0.437
same,relative viability,[13]; first compound 0.03162 µM,0.551
same,relative viability,[13]; first compound 0.1 µM,0.689
same,relative viability,[13]; first compound 0.3162 µM,1.28
same,relative viability,[13]; first compound 1 µM,0.39
same,relative viability,[14]; first compound 0.01 µM,0.276
same,relative viability,[14]; first compound 0.03162 µM,0.297
same,relative viability,[14]; first compound 0.1 µM,0.294
same,relative viability,[14]; first compound 0.3162 µM,0.337
same,relative viability,[14]; first compound 1 µM,0.326
same,relative viability,[15]; first compound 0.01 µM,0.46
same,relative viability,[15]; first compound 0.03162 µM,0.494
same,relative viability,[15]; first compound 0.1 µM,0.442
same,relative viability,[15]; first compound 0.3162 µM,0.497
same,relative viability,[15]; first compound 1 µM,0.44
same,relative viability,[16]; first compound 0.01 µM,0.427
same,relative viability,[16]; first compound 0.03162 µM,0.391
same,relative viability,[16]; first compound 0.1 µM,0.439
same,relative viability,[16]; first compound 0.3162 µM,0.396
same,relative viability,[16]; first compound 1 µM,0.266
same,relative viability,[17]; first compound 0.01 µM,0.602
same,relative viability,[17]; first compound 0.03162 µM,0.693
same,relative viability,[17]; first compound 0.1 µM,0.672
same,relative viability,[17]; first compound 0.3162 µM,0.743
same,relative viability,[17]; first compound 1 µM,0.702
same,relative viability,[18]; first compound 0.01 µM,0.465
same,relative viability,[18]; first compound 0.03162 µM,0.544
same,relative viability,[18]; first compound 0.1 µM,0.497
same,relative viability,[18]; first compound 0.3162 µM,0.581
same,relative viability,[18]; first compound 1 µM,0.436
same,relative viability,[19]; first compound 0.01 µM,0.229
same,relative viability,[19]; first compound 0.03162 µM,0.311
same,relative viability,[19]; first compound 0.1 µM,0.38
same,relative viability,[19]; first compound 0.3162 µM,0.343
same,relative viability,[19]; first compound 1 µM,0.224
same,relative viability,[20]; first compound 0.01 µM,0.657
same,relative viability,[20]; first compound 0.03162 µM,0.488
same,relative viability,[20]; first compound 0.1 µM,0.451
same,relative viability,[20]; first compound 0.3162 µM,0.26
same,relative viability,[20]; first compound 1 µM,0.0798
same,relative viability,[21]; first compound 0.01 µM,0.609
same,relative viability,[21]; first compound 0.03162 µM,0.782
same,relative viability,[21]; first compound 0.1 µM,0.49
same,relative viability,[21]; first compound 0.3162 µM,0.281
same,relative viability,[21]; first compound 1 µM,0.204
same,relative viability,[22]; first compound 0.01 µM,0.402
same,relative viability,[22]; first compound 0.03162 µM,0.477
same,relative viability,[22]; first compound 0.1 µM,0.551
same,relative viability,[22]; first compound 0.3162 µM,0.481
same,relative viability,[22]; first compound 1 µM,0.451
same,relative viability,[23]; first compound 0.01 µM,0.728
same,relative viability,[23]; first compound 0.03162 µM,0.591
same,relative viability,[23]; first compound 0.1 µM,0.598
same,relative viability,[23]; first compound 0.3162 µM,0.479
same,relative viability,[23]; first compound 1 µM,0.305
